Results on 26 compounds are retold here after patent US11498896B2 (The Broad Institute, Inc., priority 2014, dated 2022).

The pEC50 is the negative decadic logarithm of the EC50, by convention in mol/L. One may read the pIC50 as the IC50 on a negative log10 scale, so that one unit is a factor of ten. The low end stands for a high IC50, the high end for a low IC50.

pEC50, pIC50: −log10 of the molar value.

Assay [1] concerns the target T1, human D2R/β-arrestin (Homo sapiens (Human), UniProt P14416). In words: β-arrestin agonist assay (PathHunter). In kind it is cell-based. The conditions noted are these: CHO-K1 cells expressing human D2R/β-arrestin; agonist mode. The method, then: The detection reagent (9.6 μL, Buffer:Emerald II:Galactor-Star in a 19:5:1 ratio, i.e., 14.06 mL:3.7 mL:0.74 mL=18.5 mL) was then added to the agonist plates.

The target of assay [2] is T1, human D2R/β-arrestin. The assay can be described thus: Gi/cAMP agonist assay (Lance Ultra cAMP, forskolin). The format is cell-based. The conditions noted are these: CHO-K1 cells expressing human D2R/β-arrestin; agonist mode, 2.5 μM forskolin. The method, then:
Eu-cAMP tracer solution (10 μl, PerkinElmer, 360 μl of Tracer in 17.64 ml kit buffer) and ULight-anti-cAMP solution (10 μl, 120 μL antibody in 17.88 ml kit buffer) was then added to each well.

Assay [3] has as its target T1, human D2R/β-arrestin. In words: cell-based. The conditions noted are these: β-arrestin Antagonist, CHO-K1 cells expressing human D2R/β-arrestin; antagonist mode, quinpirole 130 nM.
In assay [4] the target is T1, human D2R/β-arrestin. In words: cell-based. The conditions noted are these: cAMP Antagonist, CHO-K1 cells expressing human D2R/β-arrestin; antagonist mode, 2.5 μM forskolin and 2.7 nM quinpirole.

T1 sequence (P14416 whole entry): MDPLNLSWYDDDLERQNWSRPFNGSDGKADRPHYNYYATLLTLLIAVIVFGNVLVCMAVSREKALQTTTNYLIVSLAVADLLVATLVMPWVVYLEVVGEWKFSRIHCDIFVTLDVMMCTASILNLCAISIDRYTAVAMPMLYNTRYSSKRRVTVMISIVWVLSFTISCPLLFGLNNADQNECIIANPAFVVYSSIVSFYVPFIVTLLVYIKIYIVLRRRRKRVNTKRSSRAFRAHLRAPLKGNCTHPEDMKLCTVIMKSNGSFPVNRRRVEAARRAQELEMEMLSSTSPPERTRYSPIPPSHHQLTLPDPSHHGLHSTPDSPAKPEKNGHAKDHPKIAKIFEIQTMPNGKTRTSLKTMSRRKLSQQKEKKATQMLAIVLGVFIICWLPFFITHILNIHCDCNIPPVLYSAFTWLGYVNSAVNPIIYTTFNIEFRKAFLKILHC

With `COc1ccc(F)cc1OCCN1CCC(C)(Oc2ccc(Cl)cc2)CC1` [Compound 159, 4-(4-chlorophenoxy)-1-(2-(5-fluoro-2-methoxyphenoxy)ethyl)-4-methylpiperidine], the negative-log EC50 (pEC50) was below 4.52 at human D2R/β-arrestin [1] and above 7.00 at human D2R/β-arrestin [2]. Moreover, the results for the pIC50 against human D2R/β-arrestin [3] and on human D2R/β-arrestin [4] were 6.00 to 7.00 and 5.00 to 6.00, respectively.

As to `COc1cc(F)ccc1OCCN1CCC(C)(Oc2ccc(Cl)cc2)CC1` [Compound 160, 4-(4-chlorophenoxy)-1-(2-(4-fluoro-2-methoxyphenoxy)ethyl)-4-methyl piperidine], the negative-log EC50 (pEC50) on human D2R/β-arrestin [1] and at human D2R/β-arrestin [2] was below 4.52 throughout. Moreover, the values for the pIC50 against human D2R/β-arrestin [3] and against human D2R/β-arrestin [4] were 5.00 to 6.00 and 6.00 to 7.00, respectively.

With `CC1(Oc2ccc(Cl)cc2)CCN(CCOc2cncs2)CC1` [Compound 161, 5-(2-(4-(4-chlorophenoxy)-4-methylpiperidin-1-yl)ethoxy)thiazole], the negative-log EC50 (pEC50) on human D2R/β-arrestin [1] is 6.00 to 7.00; at human D2R/β-arrestin [2], above 7.00. Further, the values for the negative logarithm of the IC50 (pIC50) against human D2R/β-arrestin [3] and against human D2R/β-arrestin [4] were 4.52 to 5.00 and below 4.52, respectively.

On to `CC1(Oc2ccc(Cl)cc2)CCN(CCOc2ncccc2C(F)(F)F)CC1` [Compound 162, 2-(2-(4-(4-chlorophenoxy)-4-methylpiperidin-1-yl)ethoxy)-3-(trifluoromethyl)pyridine], for which the pEC50 at human D2R/β-arrestin [1] is below 4.52; at human D2R/β-arrestin [2], 5.00 to 6.00. In addition, the results for the negative-log IC50 (pIC50) at human D2R/β-arrestin [3] and against human D2R/β-arrestin [4] were 6.00 to 7.00 and above 7.00, respectively.

Turning to `CC1(Oc2ccc(Cl)cc2)CCN(CCOc2cccnc2C(F)(F)F)CC1` [Compound 163, 3-(2-(4-(4-chlorophenoxy)-4-methylpiperidin-1-yl)ethoxy)-2-(trifluoromethyl)pyridine], the pEC50 was 5.00 to 6.00 on human D2R/β-arrestin [1] and above 7.00 at human D2R/β-arrestin [2]. In addition, the negative logarithm of the IC50 (pIC50) at human D2R/β-arrestin [3] and against human D2R/β-arrestin [4] was below 4.52 in each case.

With `CC1(Oc2ccc(Cl)cc2)CCN(CCOc2cc(Cl)ccc2C(F)(F)F)CC1` [Compound 165, 1-(2-(5-chloro-2-(trifluoromethyl)phenoxy)ethyl)-4-(4-chlorophenoxy)-4-methylpiperidine], the negative logarithm of the EC50 (pEC50) on human D2R/β-arrestin [1] was 4.52 to 5.00; at human D2R/β-arrestin [2] it was 5.00 to 6.00. The values for the pIC50 at human D2R/β-arrestin [3] and against human D2R/β-arrestin [4] were 5.00 to 6.00 and below 4.52, respectively.

With `CC1(Oc2ccc(Cl)cc2)CCN(CCOc2ccc3c(c2)NC(=O)CC3)CC1` [Compound 166, 7-(2-(4-(4-chlorophenoxy)-4-methylpiperidin-1-yl)ethoxy)-3,4-dihydroquinolin-2(1H)-one], the pEC50 at human D2R/β-arrestin [1] is below 4.52; on human D2R/β-arrestin [2], 5.00 to 6.00. Further, the pIC50 at human D2R/β-arrestin [3] and against human D2R/β-arrestin [4] was 5.00 to 6.00 throughout.

Regarding `CC1(Oc2ccc(Cl)cc2)CCN(CCOc2ccncc2C(F)(F)F)CC1` [Compound 167, 4-(2-(4-(4-chlorophenoxy)-4-methylpiperidin-1-yl)ethoxy)-3-(trifluoromethyl)pyridine], the pEC50 at human D2R/β-arrestin [1] is below 4.52; on human D2R/β-arrestin [2], 5.00 to 6.00. The pIC50 at human D2R/β-arrestin [3] and at human D2R/β-arrestin [4] was 5.00 to 6.00 each time.

Take `CC1(Oc2ccc(Cl)cc2)CCN(CCNc2ccccc2C(F)(F)F)CC1` [Compound 168, N-(2-(4-(4-chlorophenoxy)-4-methylpiperidin-1-yl)ethyl)-2-(trifluoromethyl) aniline]: the negative-log EC50 (pEC50) at human D2R/β-arrestin [1] and at human D2R/β-arrestin [2] was below 4.52 each time. Moreover, the negative logarithm of the IC50 (pIC50) against human D2R/β-arrestin [3] and on human D2R/β-arrestin [4] was 5.00 to 6.00 throughout.

For `CN(CCN1CCC(C)(Oc2ccc(Cl)cc2)CC1)c1ccccc1C(F)(F)F` [Compound 169, N-(2-(4-(4-chlorophenoxy)-4-methylpiperidin-1-yl)ethyl)-N-methyl-2-(trifluoromethyl)aniline], the pEC50 on human D2R/β-arrestin [1] and on human D2R/β-arrestin [2] was below 4.52 each time. For the same compound, the negative-log IC50 (pIC50) against human D2R/β-arrestin [3] is 5.00 to 6.00; against human D2R/β-arrestin [4] it was 6.00 to 7.00.

For the compound `CC(=O)N(CCN1CCC(C)(Oc2ccc(Cl)cc2)CC1)c1ccccc1C(F)(F)F` [Compound 170, N-(2-(4-(4-chlorophenoxy)-4-methylpiperidin-1-yl)ethyl)-N-(2-(trifluoromethyl)phenyl)acetamide], the negative-log EC50 (pEC50) on human D2R/β-arrestin [1] and at human D2R/β-arrestin [2] was below 4.52 in each case. Moreover, the pIC50 against human D2R/β-arrestin [3] and on human D2R/β-arrestin [4] was below 4.52 each time.

`CC1(Oc2ccc(Cl)cc2)CCN(CCOc2ccc3cccc(C(F)(F)F)c3n2)CC1` [Compound 171, 2-(2-(4-(4-chlorophenoxy)-4-methylpiperidin-1-yl)ethoxy)-8-(trifluoromethyl)quinoline]: the results for the pEC50 on human D2R/β-arrestin [1] and at human D2R/β-arrestin [2] were below 4.52 and 6.00 to 7.00, respectively. Besides, the negative-log IC50 (pIC50) against human D2R/β-arrestin [3] and at human D2R/β-arrestin [4] was below 4.52 in each case.

Turning to `CC1(Oc2ccc(Cl)cc2)CCN(CCn2c(=O)ccc3cccc(C(F)(F)F)c32)CC1` [Compound 172, 1-(2-(4-(4-chlorophenoxy)-4-methylpiperidin-1-yl)ethyl)-8-(trifluoromethyl)quinolin-2(1H)-one], the negative logarithm of the EC50 (pEC50) on human D2R/β-arrestin [1] is below 4.52; on human D2R/β-arrestin [2], 5.00 to 6.00. The pIC50 at human D2R/β-arrestin [3] and on human D2R/β-arrestin [4] was below 4.52 in each case.

As to `CC1(Oc2ccccc2)CCN(CCOc2ccncc2)CC1` [Compound 173, 4-(2-(4-methyl-4-phenoxypiperidin-1-yl)ethoxy)pyridine], the negative logarithm of the EC50 (pEC50) is 5.00 to 6.00 at human D2R/β-arrestin [1] and 6.00 to 7.00 on human D2R/β-arrestin [2]. The pIC50 against human D2R/β-arrestin [3] and against human D2R/β-arrestin [4] was below 4.52 each time.

For the compound `CC1(Oc2ccccc2)CCN(CCOc2ccccn2)CC1` [Compound 174, 2-(2-(4-methyl-4-phenoxypiperidin-1-yl)ethoxy)pyridine], the pEC50 on human D2R/β-arrestin [1] was 6.00 to 7.00; on human D2R/β-arrestin [2], above 7.00. The pIC50 on human D2R/β-arrestin [3] and against human D2R/β-arrestin [4] was below 4.52 in each case.

For `CC1(Oc2ccccc2)CCN(CCOc2cccc3[nH]ccc23)CC1` [Compound 175, 4-(2-(4-methyl-4-phenoxypiperidin-1-yl)ethoxy)-1H-indole], the pEC50 on human D2R/β-arrestin [1] is 6.00 to 7.00; on human D2R/β-arrestin [2], above 7.00. The results for the pIC50 against human D2R/β-arrestin [3] and against human D2R/β-arrestin [4] were above 7.00 and below 4.52, respectively.

As to `CC(C)C1(O)CCN(CCOc2ccccc2C(F)(F)F)CC1` [Compound 176, 4-isopropyl-1-(2-(2-(trifluoromethyl)phenoxy)ethyl)piperidin-4-ol], the negative-log EC50 (pEC50) on human D2R/β-arrestin [1] and at human D2R/β-arrestin [2] was below 4.52 throughout. Besides, the pIC50 against human D2R/β-arrestin [3] is 6.00 to 7.00; against human D2R/β-arrestin [4], above 7.00.

Consider `CC1(O)CCN(C2CCCN(c3ccccc3C(F)(F)F)C2)CC1` (centres unmarked) [Compound 177, 4-methyl-1′-(2-(trifluoromethyl)phenyl)-[1,3′-bipiperidin]-4-ol], for which the pEC50 on human D2R/β-arrestin [1] and at human D2R/β-arrestin [2] was below 4.52 in each case. The pIC50 against human D2R/β-arrestin [3] and against human D2R/β-arrestin [4] was 5.00 to 6.00 throughout.

Consider `Clc1ccc(N2CCCC23CCN(CC2COc4ccccc4O2)CC3)cc1` (centres unmarked) [Compound 178, 1-(4-chlorophenyl)-8-((2,3-dihydrobenzo[b][1,4]dioxin-2-yl)methyl)-1,8-diazaspiro[4.5]decane], for which the pEC50 at human D2R/β-arrestin [1] and at human D2R/β-arrestin [2] was below 4.52 each time. Besides, the negative logarithm of the IC50 (pIC50) against human D2R/β-arrestin [3] and against human D2R/β-arrestin [4] was above 7.00 throughout.

For `FC(F)(F)c1ccccc1OCCN1CCC2(CC1)Cc1ccccc1O2` [Compound 179, 1′-(2-(2-(trifluoromethyl)phenoxy)ethyl)-3H-spiro[benzofuran-2,4′-piperidine]], the negative-log EC50 (pEC50) at human D2R/β-arrestin [1] and on human D2R/β-arrestin [2] was below 4.52 each time. Besides, the pIC50 against human D2R/β-arrestin [3] is 5.00 to 6.00; at human D2R/β-arrestin [4], 6.00 to 7.00.

As to `CC1(Oc2ccc(Cl)cc2)CCN(CCOc2cccc(F)c2)C1` (centres unmarked) [Compound 180, 3-(4-chlorophenoxy)-1-(2-(3-fluorophenoxy)ethyl)-3-methylpyrrolidine], the figures for the pEC50 on human D2R/β-arrestin [1] and on human D2R/β-arrestin [2] were below 4.52 and above 7.00, respectively. Besides, the pIC50 at human D2R/β-arrestin [3] was 5.00 to 6.00; against human D2R/β-arrestin [4] it was below 4.52.

`c1ccc(OCCN2CCC3(Cc4ccccc4O3)C2)cc1` (centres unmarked) [Compound 181, 1′-(2-phenoxyethyl)-3H-spiro[benzofuran-2,3′-pyrrolidine]]: the negative-log EC50 (pEC50) on human D2R/β-arrestin [1] and at human D2R/β-arrestin [2] was below 4.52 in each case. The negative logarithm of the IC50 (pIC50) on human D2R/β-arrestin [3] is 5.00 to 6.00; at human D2R/β-arrestin [4] it was above 7.00.

As for `CC1(Oc2ccc(Cl)cc2)CCN(CCOc2cccnc2)CC1` [Compound 182, 3-(2-(4-(4-chlorophenoxy)-4-methylpiperidin-1-yl)ethoxy)pyridine], the pEC50 is 6.00 to 7.00 on human D2R/β-arrestin [1] and above 7.00 on human D2R/β-arrestin [2]. Also, the pIC50 on human D2R/β-arrestin [3] and against human D2R/β-arrestin [4] was below 4.52 each time.

Take `CC1(Oc2ccc(Cl)cc2)CCN(CCOc2ccncc2)CC1` [Compound 183, 4-(2-(4-(4-chlorophenoxy)-4-methylpiperidin-1-yl)ethoxy)pyridine]: the values for the pEC50 at human D2R/β-arrestin [1] and at human D2R/β-arrestin [2] were 5.00 to 6.00 and 6.00 to 7.00, respectively. Further, the negative-log IC50 (pIC50) was 5.00 to 6.00 on human D2R/β-arrestin [3] and below 4.52 on human D2R/β-arrestin [4].

For the compound `CC1(Oc2ccc(Cl)cc2)CCN(CCOc2ccc(C(F)(F)F)c(O)c2)CC1` [Compound 184, 5-(2-(4-(4-chlorophenoxy)-4-methylpiperidin-1-yl)ethoxy)-2-(trifluoromethyl)phenol], the values for the negative-log EC50 (pEC50) on human D2R/β-arrestin [1] and at human D2R/β-arrestin [2] were below 4.52 and 5.00 to 6.00, respectively. Also, the results for the negative logarithm of the IC50 (pIC50) against human D2R/β-arrestin [3] and against human D2R/β-arrestin [4] were 4.52 to 5.00 and below 4.52, respectively.

With `CC1(Oc2ccc(Cl)cc2)CCN(CCOc2ccc(C#N)cc2)CC1` [Compound 185, 4-(2-(4-(4-chlorophenoxy)-4-methylpiperidin-1-yl)ethoxy)benzonitrile], the negative logarithm of the EC50 (pEC50) was below 4.52 at human D2R/β-arrestin [1] and 5.00 to 6.00 at human D2R/β-arrestin [2]. For the same compound, the negative-log IC50 (pIC50) is 4.52 to 5.00 at human D2R/β-arrestin [3] and below 4.52 against human D2R/β-arrestin [4].
